The supplement of paper PMC10307832

Assays:
Assay in all cases: relative viability (nuclei count vs DMSO), 5 days (fraction); higher = more cells survive
A-427 = tested on: A-427
Outline: (§1)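 Values are medians from duplicate plates. Each reflects relative viability, defined as the nuclei count of treated wells over that of vehicle wells. Lung cancer cell lines in 1536-well plates were pin-tool dosed one day after seeding with one drug alone or with a fixed anchor-drug dose plus five library-drug doses (not always all listed) in √10 steps, then fixed, stained and imaged at 4× after 5 days.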

COR-L 105 = tested on: COR-L 105
Outline: as §1

ChaGo-K-1 = tested on: ChaGo-K-1
Outline: as §1

EKVX = tested on: EKVX
Outline: as §1

EMC-BAC-2 = tested on: EMC-BAC-2
Outline: as §1

H3255 = tested on: H3255
Outline: as §1

HCC-366 = tested on: HCC-366
Outline: as §1

LK-2 = tested on: LK-2
Outline: as §1

LOU-NH91 = tested on: LOU-NH91
Outline: as §1

NCI-H1563 = tested on: NCI-H1563
Outline: as §1

NCI-H1666 = tested on: NCI-H1666
Outline: as §1

NCI-H1734 = tested on: NCI-H1734
Outline: as §1

NCI-H1755 = tested on: NCI-H1755
Outline: as §1

NCI-H1975 = tested on: NCI-H1975
Outline: as §1

NCI-H2170 = tested on: NCI-H2170
Outline: as §1

NCI-H23 = tested on: NCI-H23
Outline: as §1

NCI-H441 = tested on: NCI-H441
Outline: as §1

NCI-H520 = tested on: NCI-H520
Outline: as §1

NCI-H596 = tested on: NCI-H596
Outline: as §1

PC-3 [JPC-3] = tested on: PC-3 [JPC-3]
Outline: as §1

SK-MES-1 = tested on: SK-MES-1
Outline: as §1

SW 900 = tested on: SW 900
Outline: as §1

Question: Which results are given for COc1nc(C)cnc1NS(=O)(=O)c1cccnc1-c1ccc(-c2nnco2)cc1 [Zibotentan] + Cc1nc(Nc2ncc(C(=O)Nc3c(C)cccc3Cl)s2)cc(N2CCN(CCO)CC2)n1 [Dasatinib] (partner 0.075 µM)?
Answer: relative viability (A-427; first compound 0.08 µM): 0.908; relative viability (A-427; first compound 0.253 µM): 0.69; relative viability (A-427; first compound 0.8 µM): 0.7; relative viability (A-427; first compound 2.53 µM): 0.828; relative viability (COR-L 105; first compound 0.08 µM): 0.32; relative viability (COR-L 105; first compound 0.253 µM): 0.353; relative viability (COR-L 105; first compound 0.8 µM): 0.381; relative viability (COR-L 105; first compound 2.53 µM): 0.405; relative viability (ChaGo-K-1; first compound 0.08 µM): 0.604; relative viability (ChaGo-K-1; first compound 0.253 µM): 0.646; relative viability (ChaGo-K-1; first compound 0.8 µM): 0.498; relative viability (ChaGo-K-1; first compound 2.53 µM): 0.626; relative viability (EKVX; first compound 0.08 µM): 0.612; relative viability (EKVX; first compound 0.253 µM): 0.529; relative viability (EKVX; first compound 0.8 µM): 0.392; relative viability (EKVX; first compound 2.53 µM): 0.572; relative viability (EMC-BAC-2; first compound 0.08 µM): 0.338; relative viability (EMC-BAC-2; first compound 0.8 µM): 0.295; relative viability (EMC-BAC-2; first compound 2.53 µM): 0.369; relative viability (H3255; first compound 0.08 µM): 0.406; relative viability (H3255; first compound 0.253 µM): 0.311; relative viability (H3255; first compound 0.8 µM): 0.632; relative viability (H3255; first compound 2.53 µM): 0.325; relative viability (HCC-366; first compound 0.08 µM): 0.73; relative viability (HCC-366; first compound 0.253 µM): 0.584; relative viability (HCC-366; first compound 0.8 µM): 0.359; relative viability (HCC-366; first compound 2.53 µM): 0.652; relative viability (LK-2; first compound 0.08 µM): 0.293; relative viability (LK-2; first compound 0.253 µM): 0.221; relative viability (LK-2; first compound 0.8 µM): 0.275; relative viability (LK-2; first compound 2.53 µM): 0.318; relative viability (LOU-NH91; first compound 0.08 µM): 0.577; relative viability (LOU-NH91; first compound 0.253 µM): 0.485; relative viability (LOU-NH91; first compound 0.8 µM): 0.539; relative viability (LOU-NH91; first compound 2.53 µM): 0.577; relative viability (NCI-H1563; first compound 0.08 µM): 0.493; relative viability (NCI-H1563; first compound 0.253 µM): 0.435; relative viability (NCI-H1563; first compound 0.8 µM): 0.476; relative viability (NCI-H1563; first compound 2.53 µM): 0.397; relative viability (NCI-H1666; first compound 0.08 µM): 0.883; relative viability (NCI-H1666; first compound 0.253 µM): 0.706; relative viability (NCI-H1666; first compound 0.8 µM): 0.821; relative viability (NCI-H1666; first compound 2.53 µM): 0.907; relative viability (NCI-H1734; first compound 0.08 µM): 0.484; relative viability (NCI-H1734; first compound 0.253 µM): 0.42; relative viability (NCI-H1734; first compound 0.8 µM): 0.487; relative viability (NCI-H1734; first compound 2.53 µM): 0.564; relative viability (NCI-H1755; first compound 0.08 µM): 0.433; relative viability (NCI-H1755; first compound 0.253 µM): 0.413; relative viability (NCI-H1755; first compound 0.8 µM): 0.4; relative viability (NCI-H1755; first compound 2.53 µM): 0.473; relative viability (NCI-H1975; first compound 0.08 µM): 0.378; relative viability (NCI-H1975; first compound 0.253 µM): 0.341; relative viability (NCI-H1975; first compound 0.8 µM): 0.307; relative viability (NCI-H1975; first compound 2.53 µM): 0.376; relative viability (NCI-H2170; first compound 0.08 µM): 0.59; relative viability (NCI-H2170; first compound 0.253 µM): 0.612; relative viability (NCI-H2170; first compound 0.8 µM): 0.52; relative viability (NCI-H2170; first compound 2.53 µM): 0.469; relative viability (NCI-H23; first compound 0.08 µM): 0.859; relative viability (NCI-H23; first compound 0.253 µM): 0.711; relative viability (NCI-H23; first compound 0.8 µM): 0.553; relative viability (NCI-H23; first compound 2.53 µM): 0.928; relative viability (NCI-H441; first compound 0.08 µM): 0.715; relative viability (NCI-H441; first compound 0.253 µM): 0.476; relative viability (NCI-H441; first compound 0.8 µM): 0.679; relative viability (NCI-H441; first compound 2.53 µM): 0.677; relative viability (NCI-H520; first compound 0.08 µM): 0.252; relative viability (NCI-H520; first compound 0.253 µM): 0.222; relative viability (NCI-H520; first compound 0.8 µM): 0.224; relative viability (NCI-H520; first compound 2.53 µM): 0.237; relative viability (NCI-H596; first compound 0.08 µM): 0.68; relative viability (NCI-H596; first compound 0.253 µM): 0.549; relative viability (NCI-H596; first compound 0.8 µM): 0.538; relative viability (NCI-H596; first compound 2.53 µM): 0.561; relative viability (PC-3 [JPC-3]; first compound 0.08 µM): 0.989; relative viability (PC-3 [JPC-3]; first compound 0.253 µM): 1.02; relative viability (PC-3 [JPC-3]; first compound 0.8 µM): 1.01; relative viability (PC-3 [JPC-3]; first compound 2.53 µM): 1.12; relative viability (SK-MES-1; first compound 0.08 µM): 0.333; relative viability (SK-MES-1; first compound 0.253 µM): 0.261; relative viability (SK-MES-1; first compound 0.8 µM): 0.473; relative viability (SK-MES-1; first compound 2.53 µM): 0.363; relative viability (SW 900; first compound 0.08 µM): 0.633; relative viability (SW 900; first compound 0.253 µM): 0.59; relative viability (SW 900; first compound 0.8 µM): 0.562; relative viability (SW 900; first compound 2.53 µM): 0.911
